# According to US11534457B2, “Use of dextran sulfate” (priority 2017, dated 2022):
# Tested on: severe traumatic brain injury (sTBI)
# Assay: sTBI in rats, brain gene expression arrays and pathway analysis (Example 9)
# Format: in vivo, Male Wistar rats
# Parameters: key to z score, canonical pathway Dendritic Cell Maturation / z score, canonical pathway Adrenomedullin Signaling pathway / z score, canonical pathway Endothelin-1 Signaling / effect on canonical pathway Adrenomedullin Signaling pathway / effect on canonical pathway Endothelin-1 Signaling / effect on canonical pathway Dendritic Cell Maturation / Ingenuity canonical pathway Adrenomedullin signaling pathway, z score / Ingenuity canonical pathway FLT3 Signaling in Hematopoietic Progenitor Cells, z score / Ingenuity canonical pathway Opioid Signaling Pathway, z score / Ingenuity canonical pathway VDR/RXR Activation, z score / Ingenuity canonical pathway Neuropathic Pain Signaling In Dorsal Horn Neurons, z score / Ingenuity canonical pathway STAT3 Pathway, z score / Ingenuity canonical pathway IL-1 Signaling, z score / Ingenuity canonical pathway IL-6 Signaling, z score / Ingenuity canonical pathway NF-κB Signaling, z score / Ingenuity canonical pathway Role of NFAT in Cardiac Hypertrophy, z score / Ingenuity canonical pathway PPARα/RXRα Activation, z score: *: ambiguous effect
# Conditions: TBI + 5 mg/kg LMW-DS, 7 days after TBI
# Procedure: The experimental protocol used in this study was approved by the Ethical Committee of the Catholic University of Rome, according to international standards and guidelines for animal care. Male Wistar rats of 300-350 g body weight were fed with standard laboratory diet and water ad libitum in a controlled environment. As the anesthetic mixture, the animals received 35 mg/kg b.w. ketamine and 0.25 mg/kg body weight midazolam by i.p. injection. Severe traumatic brain injury (sTBI) was induced by dropping a 450 g weight from 2 m height on to the rat head that had been protected by a metal disk previously fixed on the skull, according to the “weight drop” impact acceleration model (Marmarou et al., A new model of diffuse brain injury in rats. Part I: Pathophysiology and biomechanics. J Neurosurg. 1994; 80: 291-300). […] At the end of each period of treatment, rats were anesthetized again and then immediately sacrificed.
# LMW-DS (Tikomed AB) was provided at a stock concentration of 20 mg/ml and was kept in a temperature-monitored refrigerator at 4° C. LMW-DS aliquots were diluted to the appropriate dosing concentration in sterile saline prior to delivery of a single subcutaneous injection.
# Three doses of LMW-DS were administered subcutaneously 30 minutes post-TBI. The animals were sacrificed at 2 days post-TBI. The animals were divided into the following subgroups:
# Three doses of LMW-DS were administered subcutaneously 30 minutes post-TBI. The animals were sacrificed at 7 days post-TBI. The animals were divided into the following subgroups:
# An in vivo craniectomy was performed on all animals during anesthesia. After carefully removing the rat's skull, the brain was exposed and removed with a surgical spatula and quickly dropped in RNALater and preserved at 4° C. for further processing.
# RNA extraction and array processing was carried out by SourceBioscience. The arrays used were the Agilent Rat expression arrays.
# Statistical analysis was carried out using the Metaboanalyst software package. Gene expression changes of 10% with a p<0.05 were regarded as significant.
# Pathway analysis of the differentially regulated genes was carried out using the Ingenuity pathway analysis package. The analysis was performed with special reference to pathways and molecular processes and diseases associated with neurodegenerative disease, including dementia, Alzheimer's disease, ALS, TBI and stroke, and with scarring and fibrosis, including glaucoma and normal pressure hydrocephalus (NPH) after subarachnoid haemorrhage.
substance,measurement,setting,value
low molecular weight dextran sulfate [LMW-DS],z score: Cellular homeostasis,,1.615
same,z score: Chemotaxis,,1.873
same,z score: Concentration of lipid,,−0.575
same,z score: Development of body axis,,1.213
same,z score: Development of body trunk,,1.09
same,z score: Development of carcinoma,,0.152
same,z score: Development of connective tissue cells,,1.638
same,z score: Development of epithelial tissue,,0.262
same,z score: Development of genitourinary system,,−0.336
same,z score: Development of head,,1.213
same,z score: Development of neurons,,1.106
same,z score: Development of sensory organ,,0.669
same,z score: Development of vasculature,,0.295
same,z score: Differentiation of bone,,1.012
same,z score: Differentiation of bone cells,,0.85
same,z score: Differentiation of connective tissue cells,,0.769
same,z score: Digestive organ tumor,,−1.348
same,z score: Digestive system cancer,,−1.792
same,z score: Endocrine gland tumor,,−0.067
same,z score: Expression of RNA,,1.797
same,z score: Extracranial solid tumor,,0.369
same,z score: Failure of kidney,,0.555
same,z score: Formation of eye,,1.664
same,z score: Gastrointestinal tumor,,−1.215
same,z score: Genital tumor,,0.305
same,z score: Genitourinary carcinoma,,1.131
same,z score: Genitourinary tumor,,1.388
same,z score: Glucose metabolism disorder,,0.439
same,z score: Growth of connective tissue,,−0.324
same,z score: Growth of epithelial tissue,,−1.58
same,z score: Growth of tumor,,2.295
same,z score: Head and neck cancer,,−1.154
same,z score: Head and neck tumor,,−0.355
same,z score: Hematologic cancer,,−1.725
same,z score: Hematologic cancer of cells,,−1.486
same,z score: Hematopoietic neoplasm,,−1.002
same,z score: Intestinal tumor,,−1.09
same,z score: Invasion of cells,,1.32
same,z score: Leukocyte migration,,3.062
same,z score: Lymphatic system tumor,,−0.956
same,z score: Lymphocytic cancer,,−1.486
same,z score: Lymphocytic neoplasm,,−1.486
same,z score: Lymphoid cancer,,−0.956
same,z score: Lymphoma,,−1.224
same,z score: Lymphoproliferative disorder,,−1.727
same,z score: Lymphoreticular neoplasm,,−1.224
same,z score: Malignant genitourinary solid tumor,,0.346
same,z score: Malignant solid tumor,,0.423
same,z score: Microtubule dynamics,,1.82
same,z score: Migration of cells,,2.659
same,z score: Migration of endothelial cells,,2.16
same,z score: Morbidity or mortality,,−2.848
same,z score: Necrosis,,0.228
same,z score: Necrosis of epithelial tissue,,1.674
same,z score: Neoplasia of cells,,0.474
same,z score: Neoplasia of leukocytes,,−1.486
same,z score: Non-hematologic malignant neoplasm,,−0.243
same,z score: Non-hematological solid tumor,,0.021
same,z score: Non-melanoma solid tumor,,0.01
same,z score: Obesity,,0.493
same,z score: Organismal death,,−2.885
same,z score: Organization of cytoskeleton,,2.174
same,z score: Pelvic tumor,,0.445
same,z score: Peripheral vascular disease,,1
same,z score: Proliferation of connective tissue cells,,−0.747
same,z score: Proliferation of epithelial cells,,−1.196
same,z score: Quantity of cells,,0.634
same,z score: Quantity of connective tissue,,0.609
same,z score: Renal impairment,,0.555
same,z score: Secretion of molecule,,1.386
same,z score: Sensory system development,,−0.307
same,z score: Size of body,,0.748
same,z score: Skin lesion,,−0.111
same,z score: Skin tumor,,−2.396
same,z score: Solid tumor,,1.29
same,z score: Synthesis of lipid,,1.937
same,z score: Transcription,,1.317
same,z score: Transcription of RNA,,1.221
same,z score: Transport of molecule,,1.854
same,z score: Tumorigenesis of tissue,,−0.832
same,z score: Vasculogenesis,,0.507
same,"Ingenuity canonical pathway Acute Phase Response Signaling, z score",relative to control,1.89
same,"Ingenuity canonical pathway Adrenomedullin signaling pathway, z score",relative to control,−0.632
same,"Ingenuity canonical pathway Cardiac Hypertrophy Signaling, z score",relative to control,1
same,"Ingenuity canonical pathway Colorectal Cancer Metastasis Signaling, z score",relative to control,−0.378
same,"Ingenuity canonical pathway Dendritic Cell Maturation, z score",relative to control,1.897
same,"Ingenuity canonical pathway ERK5 Signaling, z score",relative to control,−0.447
same,"Ingenuity canonical pathway ERK/MAPK Signaling, z score",relative to control,1
same,"Ingenuity canonical pathway Endothelin-1 Signaling, z score",relative to control,1.633
same,"Ingenuity canonical pathway Fcγ Receptor-mediated Phagocytosis in Macrophages and Monocytes, z score",relative to control,2.236
same,"Ingenuity canonical pathway GNRH Signaling, z score",relative to control,2
same,"Ingenuity canonical pathway HMGB1 Signaling, z score",relative to control,1.134
same,"Ingenuity canonical pathway IL-1 Signaling, z score",relative to control,1
same,"Ingenuity canonical pathway IL-6 Signaling, z score",relative to control,1
same,"Ingenuity canonical pathway IL-8 Signaling, z score",relative to control,2.646
same,"Ingenuity canonical pathway ILK Signaling, z score",relative to control,1.89
same,"Ingenuity canonical pathway Leukocyte Extravasation Signaling, z score",relative to control,1.342
same,"Ingenuity canonical pathway NF-κB Signaling, z score",relative to control,*
same,"Ingenuity canonical pathway Neuroinflammation Signaling Pathway, z score",relative to control,1.941
same,"Ingenuity canonical pathway Opioid Signaling Pathway, z score",relative to control,*
same,"Ingenuity canonical pathway Osteoarthritis Pathway, z score",relative to control,−1
same,"Ingenuity canonical pathway PI3K Signaling in B Lymphocytes, z score",relative to control,1.89
same,"Ingenuity canonical pathway PKCθ Signaling in T Lymphocytes, z score",relative to control,2
same,"Ingenuity canonical pathway PPAR Signaling, z score",relative to control,−1.342
